The source of these data is US11673876B2, “Substituted aminobenzyl heteroaryl compounds as EGFR and/or PI3K inhibitors” (Mekanistic Therapeutics LLC, priority 2020, dated 2023).

Values after ≈ are worked out from the molar mass of the structure shown. Where two headings read alike, the source gives them in different places.

One data set deals with DNA-PK (Homo sapiens (Human), UniProt P78527). As to the kind of experiment: Z'-LYTE / Adapta kinase assay, DNA-PK. Type of data set: biochemical. The settings on record: for inhibition at 0.1 µM: read-out: DNA-PK % Inh. @ 100 nM. The gist of the method:
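Z'-LYTE FRET-peptide phosphorylation read as coumarin/fluorescein emission ratio (400 nm excitation); Adapta immunoassay detects ADP formation. 60-min kinase reaction, 60-min development, room temperature.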

The nature of data set [1]: Solubility determination (PBS 7.4, SIF, SGF). The data set is classed as physicochemical. The settings on record: for solubility at 2 h: kinetic from dmso stock. As for the experimental part: Preparation of stock solutions: The stock solutions of test compounds and control compound diclofenac were prepared in DMSO at the concentrations of 10 mM.
Simulated Gastric Fluid (SGF): An aqueous mixture including hydrochloric acid, sodium chloride, and pepsin (pH=1.2).
Simulated Intestinal Fluid (SIF): Prepared by dissolving 6.8 g of KH2PO4 into about 500 mL ultrapure water and adjust the solution to a pH 6.8 with 0.1 M NaOH. 10 g trypsin is then dissolved into ultrapure water. The two solutions are mixed well and diluted with ultrapure water to a final volume of 1000 mL.
485 μL of (SIF, SGF, PBS 7.4, FESSIF, or FESSGF) was added into each vial of the cap-less Solubility Sample plate. The assay was performed in duplicate. Add one stir stick to each vial and seal using a molded PTFE/Silicone plug. […] After completion of the 2 hours, plugs were removed and the stir sticks were removed using a big magnet, the samples from the Solubility Sample plate were transferred into the filter plate. Using the Vacuum Manifold, all the samples were filtered. Aliquot of 5 μL and 5 μL DMSO were taken from the filtrate followed by addition of 490 μL of a mixture of H2O and acetonitrile containing internal standard (1:1). A certain proportion of ultrapure water was used to dilute the diluent according to the peak shape. The dilution factor was changed according to the solubility values and the LC-MS signal response.
Preparation of 300 μM standards (STD): From the 10 mM DMSO STD plate, 6 μL was transferred into the remaining empty plate, and then 194 μL of DMSO was added to that plate to have a STD concentration of 300 μM. From the 300 μM DMSO STD plate, 5 μL DMSO STD and 5 μL SIF was transferred into the remaining empty plate, and then 490 μL of a mixture of H2O and acetonitrile containing internal standard (1:1) was added to that plate to have a final STD concentration of 3 μM. A certain proportion of ultrapure water was used to dilute the diluent according to the peak shape. The concentrations of the standard samples were changed according to the LC-MS signal response.
Procedure for sample analysis: The plate was placed into the well plate autosampler. The samples were evaluated by LC-MS/MS analysis.
Data analysis: All calculations were carried out using Microsoft Excel. The filtrate was analyzed and quantified against a standard of known concentration using LC coupled with mass spectral peak identification and quantitation. Solubility values of the test compound and control compound were calculated as follows: […]
Any value of the compounds that was not within the specified limits was rejected and the experiment was repeated.

Where [2] appears, read: aqueous buffer, PBS pH 7.4, 25° C., 2 hours, read-out: Solubility pH 7.4 PBS buffer.
Where [3] appears, read: simulated gastric fluid (SGF), simulated gastric fluid pH 1.2, 25° C., 2 hours, read-out: Solubility SGF.
[4] abbreviates: simulated intestinal fluid (SIF), simulated intestinal fluid pH 6.8, 25° C., 2 hours, read-out: Solubility SIF.

One may read the IC50 as the concentration that inhibits the measured activity by half. A word on the solubility: it is the concentration that dissolves in the medium under given conditions. At DNA-PK, `CS(=O)(=O)Nc1cc(-c2ccc3ncnc(NCc4ccccc4)c3c2)cnc1Cl` [Comparative Compound 1, N-[5-[4-(benzylamino)quinazolin-6-yl]-2-chloro-3-pyridyl]methanesulfonamide, reference compound] registered a half-inhibitory concentration (IC50) of under 2 nM. Moreover, the inhibition at 0.1 µM at DNA-PK is over 90%. Also, the results for the solubility at 2 h in data set [1] (setting [2]), in data set [1] (setting [3]) and in data set [1] (setting [4]) were at most 20 µM, over 200 µM and at most 20 µM, respectively.
As for `CS(=O)(=O)Nc1cc(-c2ccc3ncnc(Nc4ccc(F)c(Cl)c4)c3c2)cnc1Cl` [Comparative Compound 2, reference compound], the IC50 against DNA-PK was under 2 nM. For the same compound, the inhibition at 0.1 µM at DNA-PK is over 90%. In addition, the solubility at 2 h in data set [1] (setting [2]) is at most 20 µM; in data set [1] (setting [3]), over 200 µM; in data set [1] (setting [4]), at most 20 µM.
Turning to `CS(=O)(=O)Nc1cncc(-c2ccc3ncnc(NCc4ccccc4)c3c2)c1` [Comparative Compound 3, reference compound], the “DNA-PK % Inh. @ 100 nM” value on DNA-PK (100 nM) is on record as “**** (value is greater than 90%)”. Moreover, the “Solubility SIF” value in data set [1] (simulated intestinal fluid pH 6.8, 25° C., 2 hours) was “* (value is 20 μM or less)”.
At DNA-PK, `C[C@@H](Nc1ncnc2ccc(-c3cnc(Cl)c(NS(C)(=O)=O)c3)cc12)c1ccccc1` [Compound 2R, N-(2-chloro-5-(4-((1R-phenylethyl)amino)quinazolin-6-yl)pyridin-3-yl)methanesulfonamide] registered an IC50 of 2 to 20 nM. The inhibition at 0.1 µM at DNA-PK is over 90%. Moreover, the figures for the “improvement in solubility compared to Comparative Compounds 1-3” value in data set [1] (PBS buffer) and in data set [1] (simulated intestinal fluid) were “same improvement in solubility” and “at least 5 times”, respectively. The results for the solubility at 2 h in data set [1] (setting [2]), in data set [1] (setting [3]) and in data set [1] (setting [4]) were 100 to 200 µM (≈ 45.4 to 90.8 µg/mL), over 200 µM and 100 to 200 µM (≈ 45.4 to 90.8 µg/mL), respectively.
In the case of `C[C@H](Nc1ncnc2ccc(-c3cnc(Cl)c(NS(C)(=O)=O)c3)cc12)c1ccccc1` [Compound 2S, N-(2-chloro-5-(4-((1S-phenylethyl)amino)quinazolin-6-yl)pyridin-3-yl)methanesulfonamide], on DNA-PK, the IC50 was under 2 nM and the inhibition at 0.1 µM was over 90%. The “improvement in solubility compared to Comparative Compounds 1-3” value in data set [1] (simulated intestinal fluid) is “at least 5 times”. For the same compound, the solubility at 2 h in data set [1] (setting [4]) is 100 to 200 µM (≈ 45.4 to 90.8 µg/mL).
For `CC(Nc1c(C#N)cnc2ccc(-c3cnc(N)nc3)cc12)c1ccccc1` (stereo not drawn) [Compound 53, 6-(2-aminopyrimidin-5-yl)-4-(1-phenylethylamino) quinoline-3-carbonitrile], on DNA-PK, the IC50 was 20 to 200 nM and the inhibition at 0.1 µM fell in the range of 10 to 80%. In data set [1] (setting [4]), the solubility at 2 h was 20 to 100 µM (≈ 7.33 to 36.6 µg/mL).
On to `C[C@@H](Nc1c(C#N)cnc2ccc(-c3cnc(N)nc3)cc12)c1ccccc1` [Compound 53R, (R)-6-(2-aminopyrimidin-5-yl)-4-((1-phenylethyl)amino)quinoline-3-carbonitrile], for which, on DNA-PK, the IC50 was 20 to 200 nM and the inhibition at 0.1 µM lay within 10 to 80%. Moreover, in data set [1] (setting [4]), the solubility at 2 h was 20 to 100 µM (≈ 7.33 to 36.6 µg/mL).
`CC(Nc1c(C#N)cnc2ccc(-c3cnc4[nH]ncc4c3)cc12)c1ccccc1` (stereo not drawn) [Compound 54, 4-(1-phenylethylamino)-6-(1H-pyrazolo[3,4-b]pyridin-5-yl)quinoline-3-carbonitrile]: at DNA-PK, the IC50 is 2 to 20 nM and the inhibition at 0.1 µM was in the range of 80 to 90%. The solubility at 2 h in data set [1] (setting [4]) was at most 20 µM.
`C[C@@H](Nc1ncnc2ccc(-c3cnc(Cl)c(NS(C)(=O)=O)c3)cc12)c1ccc(F)cc1` [Compound 111R, N-(2-chloro-5-(4-((1R-(4-fluorophenyl)ethyl)amino)quinazolin-6-yl)pyridin-3-yl)methanesulfonamide]: the inhibition at 0.1 µM on DNA-PK was in the range of 80 to 90%. The solubility at 2 h in data set [1] (setting [2]) was 20 to 100 µM (≈ 9.44 to 47.2 µg/mL); in data set [1] (setting [3]) it was over 200 µM; in data set [1] (setting [4]) it was 20 to 100 µM (≈ 9.44 to 47.2 µg/mL).
